For one assay, the system named is analbuminemia rats. Nature of the assay: Treadmill running test to exhaustion in analbuminemia rats (fatigue test). The following applies: NAR; for Running time up to exhaustion: i.p., BCH 8 mg/kg and BCAA 250 mg/kg 1 h before running, albumin 1 g/kg 1.5 h before, mean ± SEM. Format: in vivo, rat. As for the experimental part: Three-week-old female analbuminemia rats (Japan SLC) that genetically lacked albumin in their blood plasma, which had been raised under light and dark cycles of 7:00 to 19:00 (light cycle) at room temperature 22° C., were subjected to the fatigue tests. Prior to the fatigue tests, the analbuminemia rats were subjected to training (20 m/min, 7% inclination) for 30 minutes, four times a week, during a predetermined period of time in 13:00 to 15:00, and this training lasted for four weeks so as to adapt them to running on the treadmill. After the training had been completed, all the analbuminemia rats (weight 210 to 255 g) were subjected to exhaustion tests on the treadmill under the same conditions, and time up to an exhaustion state was measured.
The rats, which were divided into four groups, were respectively treated with physiological saline (made by Otsuka Pharmaceutical Co., Ltd “0.9% physiological saline”), the BCH (made by Sigma K.K., NoA7902), the BCAA and albumin (made by Sigma K.K. A-6272 (Fraction V)). The dose of physiological saline was set to 5 ml/kg, that of the BCH was 8 mg/kg and that of the BCAA was 250 mg/kg, and these were given into the abdominal cavity one hour prior to the start of the running tests. Here, BCH, BCAA and albumin were respectively dissolved in physiological saline, and then administered. The dose of albumin was set to 1 g/kg, and given into the abdominal cavity one and half hours prior to the start of […]. […] These doses were determined so as to obtain sufficient effects, and in the case of actual doses to the human being, these can be changed appropriately depending on various factors.
(§1) These measured data were obtained by a analysis of variance (ANOVA) in one-way layout of Fisher's PLSD test by using multiple comparisons and repeated measurements, based upon the standard error. Next, the data were classified based upon running times, and analyzed by the Student's t-test based upon observation with paired t-test in the total effects of the BCAA and BCH treatment groups.

Assay [1] deals with striatal synaptosome of analbuminemia rats. The assay is described as follows: Tryptophan and metabolites in striatal synaptosome immediately after exhaustion (HPLC, electrochemical detector). Particulars: for Concentration of 5-HIAA in striatal synaptosome / Concentration of 5-HT in striatal synaptosome / Concentration of 5-HTP in striatal synaptosome / Concentration of tryptophan in striatal synaptosome: NAR, immediately after exhaustion, mean ± SEM. Format: in vivo, rat. Here is the method: The head of each of the rats was sacrificed by decapitation immediately after the training so that the striatal synaptosome was separated, and tryptophan(Trp), 5-hydroxytryptophan (5-HTP), 5-hydroxytryptamin (5-HT) and 5-hydroxyindoleacetic acid (5-HIAA) were measured by high-performance liquid chromatography using an electrochemical detector. Moreover, the protein level in the P2 fraction was measured in accordance with the method of Lowry et al. (J. Protein measurements with the Folin phenol reagent, J. Biol. Chem. 193: 265-275; 1951).
as §1

The subject of assay [2] is tryptophan-deficient rats. Nature of the assay: Treadmill running test to exhaustion in tryptophan-deficient rats (Evaluation Test 2). Particulars: i.p. 1 h before running, BCH 150 mg/kg, BCAA 250 mg/kg, mean ± standard error. Type of assay: in vivo, rat. The source says:
Three-week-old female rats of Sprague-Dawley-type (each rat: 50 g) were raised for one month to a weight of 200 g [fed with normal food of AIN93G for one month (standard refined feed, made by Oriental Yeast, Co., Ltd., with the tryptophan being contained at 2.3 g/kg)], and from this time on, these were fed with the tryptophan-deficient food (adjusted feed in which only the tryptophan was removed from the above-mentioned AIN93G, with corn starch being used for compensating for the corresponding portion) for 16 days to form the tryptophan-deficient rats. Amino acids, contained in the normal food AIN93G, were respectively manufactured by AJINOMOTO CO., INC., and the respective contents (g) in 1 kg of feed were: alanine 5.6, arginine 6.8, aspartic acid 13.1, cystine 3.9, glutamic acid 39.6, glycine 3.4, histidine 5.6, isoleucine 10.1, leucine 17.5, lysine 14.9, methionine 5.6, phenyl alanine 9.5, proline 21.6, serine 9.7, threonine 7.7, tryptophan 2.3 (only contained in the tryptophan-containing food), tyrosine 10.4, and valine 12.6 (each of the amino acids having a purity of 100%). […] After the training had been completed, the rats were subjected to running loads on the treadmill at a speed of 20 m/min (inclination: 7%) up to exhaustion, and the running time was evaluated as the fatigue tests shown below. […]

Assay [3] deals with tryptophan-deficient rats. Nature of the assay: Treadmill running test to exhaustion in tryptophan-deficient rats given tryptophan-added food (Evaluation Test 3). Format: in vivo, rat. The text has this:
Three-week-old female rats of Sprague-Dawley-type (each rat: 50 g) were raised for one month to a weight of 200 g [fed with normal food of AIN93G for one month (standard refined feed, made by Oriental Yeast, Co., Ltd., with the tryptophan being contained at 2.3 g/kg)], and from this time on, these were fed with the tryptophan-deficient food (adjusted feed in which only the tryptophan was removed from the above-mentioned AIN93G, with corn starch being used for compensating for the corresponding portion) for 16 days to form the tryptophan-deficient rats. Amino acids, contained in the normal food AIN93G, were respectively manufactured by AJINOMOTO CO., INC., and the respective contents (g) in 1 kg of feed were: alanine 5.6, arginine 6.8, aspartic acid 13.1, cystine 3.9, glutamic acid 39.6, glycine 3.4, histidine 5.6, isoleucine 10.1, leucine 17.5, lysine 14.9, methionine 5.6, phenyl alanine 9.5, proline 21.6, serine 9.7, threonine 7.7, tryptophan 2.3 (only contained in the tryptophan-containing food), tyrosine 10.4, and valine 12.6 (each of the amino acids having a purity of 100%). These rats were subjected to training for 30 minutes at a speed of 20 m/min (inclination: 7%) by treadmill running practice, three times a week, which started at the age of 3 weeks old, and lasted for 2 months. After the training had been completed, the rats were subjected to running loads on the treadmill at a speed of 20 m/min (inclination: 7%) up to exhaustion, and the running time was evaluated as the fatigue tests shown below. […] The evaluation was made by using inter-group comparisons (with paired t-test) of a Student's t-test.
To the tryptophan-deficient rats that had been subjected to the above-mentioned training were respectively given tryptophan-added food (AIN93G to which 2.3 g/kg of the tryptophan was added), and were then given physiological saline, a mixture of the BCH and the BCAA, the BCH and the BCAA, and comparison tests were carried out among the four groups. […]

A further assay concerns rats. The following applies: tryptophan 1 mM/30 min continuously injected into the brain; cited from earlier work.

As for `NC1(C(=O)O)CC2CCC1C2` (stereo not drawn) [BCH, 2-aminobicyclo-[2,2,1]-heptane-2-carboxylic acid], the “Extension of running time relative to physiological saline” value in the assay with analbuminemia rats (from Table 1) is “approximately twice as long”. Also, the “Running time up to exhaustion” value in the assay with analbuminemia rats is 188 ± 33 min. Also, the “Change in uptake of 5-HTP into striatal synaptosome versus physiological saline group” value in assay [1] (BCAA and BCH treated groups totaled, group B (time to exhaustion 190 to 271 minutes), p<0.025) was −23%. Besides, the “Change in uptake of tryptophan into striatal synaptosome versus physiological saline group” value in assay [1] (BCAA and BCH treated groups totaled, group B (time to exhaustion 190 to 271 minutes), p<0.05) was −19%. For the same compound, in assay [1], the “Concentration of 5-HIAA in striatal synaptosome” value is on record as 3.58 ± 0.21 pmol/mg protein, the “Concentration of 5-HT in striatal synaptosome” value is 5.20 ± 0.79 pmol/mg protein, the “Concentration of 5-HTP in striatal synaptosome” value is listed as 1.25 ± 0.17 pmol/mg protein and the “Concentration of tryptophan in striatal synaptosome” value stood at 53.43 ± 10.50 pmol/mg protein. Besides, the “Running time up to exhaustion” value in assay [2] was found to be 308 ± 22 min. Besides, the “Running time of single rats that have not reached exhaustion” value in assay [3] (BCH only-administration, two cases) was 524 minutes and not less than 524 minutes. Besides, the “Running time up to exhaustion” value in assay [3] (tryptophan-deficient rats given tryptophan-added food, doses as in evaluation test 2, i.p. 1 h before, mean ± standard error, values >542 set as 542) is 428 ± 45 min. Further, in assay [3] (tryptophan-deficient rats given tryptophan-containing food, not statistically significant), the “Running-time difference versus physiological saline group (average-value comparison)” value is given as “approximately 40 minutes”.
Consider “Albumin: albumin made by Sigma K.K. A-6272 (Fraction V)”, for which the “Running time up to exhaustion” value with analbuminemia rats turned out to be 96 ± 22 min. Further, in assay [1], the “Concentration of 5-HIAA in striatal synaptosome” value is recorded as 3.30 ± 0.06 pmol/mg protein, the “Concentration of 5-HT in striatal synaptosome” value was determined as 5.00 ± 0.47 pmol/mg protein, the “Concentration of 5-HTP in striatal synaptosome” value was 1.45 ± 0.18 pmol/mg protein and the “Concentration of tryptophan in striatal synaptosome” value came to 52.41 ± 8.97 pmol/mg protein.
For the compound `N[C@@H](Cc1c[nH]c2ccccc12)C(=O)O` [tryptophan], in the assay on rats, the “Onset of fatigue in the central nervous system or muscles” value was “exhibit the fatigue in the central nervous system or muscles in very early stage”.

The record behind these values is patent US20040033252A1, “Agents for recoverying from or preventing fatigue in the central nerve system and foods for recovering from or preventing fatigue” (priority 2000, published 2004).
